Publication PMC11818871, “Identification of Fungal Metabolite Gliotoxin as a Potent Inhibitor Against Bacterial O-Acetylserine Sulfhydrylase CysK and CysM” (International Journal of Molecular Sciences, 2025)

What was measured:
[1] = molecular target: CysM (O-acetylserine sulfhydrylase) (Salmonella enterica, UniProt P29848); experiment: recombinant enzyme, H2S consumption by HSip-1 fluorescence; confirmed by LC-MS/MS of cysteine production; format: biochemical
[2] = molecular target: CysK (O-acetylserine sulfhydrylase) (Salmonella enterica, UniProt P0A1E3); experiment: as above; format: biochemical
Chain of CysK (O-acetylserine sulfhydrylase) (P0A1E3 2-323): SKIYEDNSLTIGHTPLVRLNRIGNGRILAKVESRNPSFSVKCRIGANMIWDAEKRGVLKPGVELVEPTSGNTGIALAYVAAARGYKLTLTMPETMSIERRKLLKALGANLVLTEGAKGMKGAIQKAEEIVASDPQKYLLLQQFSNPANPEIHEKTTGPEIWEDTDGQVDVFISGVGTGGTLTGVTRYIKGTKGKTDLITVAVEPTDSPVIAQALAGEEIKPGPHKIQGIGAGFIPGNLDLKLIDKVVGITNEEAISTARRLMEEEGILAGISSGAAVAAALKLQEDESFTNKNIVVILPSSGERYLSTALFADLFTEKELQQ

Chain of CysM (O-acetylserine sulfhydrylase) (P29848 whole entry): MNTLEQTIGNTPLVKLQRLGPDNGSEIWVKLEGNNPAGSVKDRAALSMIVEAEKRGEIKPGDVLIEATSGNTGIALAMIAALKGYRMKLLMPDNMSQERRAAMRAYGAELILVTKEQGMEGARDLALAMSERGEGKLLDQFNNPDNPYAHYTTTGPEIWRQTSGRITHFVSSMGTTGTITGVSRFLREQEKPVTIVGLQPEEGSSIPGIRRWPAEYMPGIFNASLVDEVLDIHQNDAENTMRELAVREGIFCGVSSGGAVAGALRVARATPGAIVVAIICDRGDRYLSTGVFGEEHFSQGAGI

**Q.** CN1C(=O)[C@]23CC4=CC=C[C@H](O)[C@H]4N2C(=O)[C@@]1(CO)SS3 [compound 1, gliotoxin] was tested. Which IC50 [1] did it give?
**A.** ~3 µM

**Q.** What about the IC50 [2] of the same compound?
**A.** ~3 µM
